Laboratory results as given in ChEMBL document CHEMBL5505979, “Novel aminothiazoximone-corbelled ethoxycarbonylpyrimidones with antibiofilm activity to conquer Gram-negative bacteria through potential multitargeting effects” (Eur J Med Chem, 2024).
In brackets after ≈: the same amount, converted by molar mass. Activity calls are given as the source filed them. The calls are words filed in the database; no cut-off is given here.

Key:
Escherichia coli [1] = test: Anti-bacterial activity against Escherichia coli JM109 assessed as inhibition of bacterial growth; assay type: functional
Escherichia coli [2] = test: Anti-bacterial activity against Escherichia coli ATCC 25922 assessed as growth inhibition by measuring optical density measured at 1/2 time of MIC in presence of 1/4 times of MIC of norfloxacin by Checkerboard assay (reference value: 0.124); assay type: functional
Escherichia coli [3] = test: Anti-bacterial activity against Escherichia coli ATCC 25922 assessed as growth inhibition by measuring optical density measured at 1 time of MIC in presence of 1/8 times of MIC of norfloxacin by Checkerboard assay (reference value: 0.125); assay type: functional
Escherichia coli [4] = test: Anti-bacterial activity against Escherichia coli ATCC 25922 assessed as growth inhibition by measuring optical density measured at 4 time of MIC in presence of 1/4 times of MIC of norfloxacin by Checkerboard assay (reference value: 0.125); assay type: functional
Escherichia coli [5] = test: Anti-bacterial activity against Escherichia coli ATCC 25922 assessed as growth inhibition by measuring optical density measured at 2 time of MIC in presence of 1/4 times of MIC of norfloxacin by Checkerboard assay (reference value: 0.128); assay type: functional
Acinetobacter baumannii [6] = test: Induction of ROS accumulation in Acinetobacter baumannii assessed as decrease in GSH activity by measuring reduced GSH to convert to oxidized GSSG at 1/4 to 2 times of MIC by Ellmans method; assay type: functional, organism-based
Pseudomonas aeruginosa = test: Anti-bacterial activity against Pseudomonas aeruginosa ATCC 15442 assessed as inhibition of bacterial growth; assay type: functional; conditions: Pseudomonas aeruginosa, ATCC 15442; read-out: MIC
Escherichia coli [7] = test: Reduction of biofilm virulent factors in Escherichia coli ATCC 25922 assessed as decrease in extracellular polymeric substances (EPS) by measuring optical density at 490 nm at 2 times of MIC concentration by congo red binding assay (reference value: 0.028 to 0.031); assay type: functional
Acinetobacter baumannii [8] = test: Anti-bacterial activity against Acinetobacter baumannii assessed as growth inhibition by measuring optical density measured at 1/4 time of MIC in presence of 1 times of MIC of norfloxacin by Checkerboard assay (reference value: 0.152); assay type: functional
Escherichia coli [9] = test: Reduction of biofilm virulent factors in Escherichia coli ATCC 25922 assessed as decrease in extracellular polymeric substances (EPS) at 1/2 times of MIC concentration by congo red binding assay relative to control; assay type: functional; set-up: scale not given: the % may be the effect or the level left
Escherichia coli [10] = test: Reduction of biofilm virulent factors in Escherichia coli ATCC 25922 assessed as decrease in extracellular polymeric substances (EPS) by measuring optical density at 490 nm at 1/4 times of MIC concentration by congo red binding assay (reference value: 0.028 to 0.031); assay type: functional
Acinetobacter baumannii [11] = test: Anti-bacterial activity against Acinetobacter baumannii assessed as growth inhibition by measuring optical density measured at 1/2 time of MIC in presence of 1/4 times of MIC of norfloxacin by Checkerboard assay (reference value: 0.152); assay type: functional
Acinetobacter baumannii [12] = test: Anti-bacterial activity against Acinetobacter baumannii assessed as growth inhibition by measuring optical density measured at 4 time of MIC in presence of 1/4 times of MIC of norfloxacin by Checkerboard assay (reference value: 0.152); assay type: functional
Staphylococcus aureus = test: Anti-bacterial activity against Staphylococcus aureus ATCC 1708 assessed as inhibition of bacterial growth; assay type: functional; conditions: Staphylococcus aureus, ATCC 1708; read-out: MIC
Cell membrane [13] = test: Induction of physical destruction of cell membrane in Acinetobacter baumannii assessed as leakage of protein at 1/4 to 8 times of MIC concentration by Coomassie blue quantitative assay; assay type: cell membranes
Acinetobacter baumannii [14] = test: Reduction of biofilm virulent factors in Acinetobacter baumannii assessed as decrease in extracellular polymeric substances (EPS) by measuring optical density at 490 nm at 1 times of MIC concentration by congo red binding assay (reference value: 0.188 to 0.192); assay type: functional
Escherichia coli [15] = test: Antibiofilm activity against Escherichia coli ATCC 25922 assessed as clearance rate of mature biofilm at MIC concentration relative to control; assay type: functional
Escherichia coli [16] = test: Anti-bacterial activity against Escherichia coli ATCC 25922 assessed as growth inhibition by measuring optical density measured at 2 time of MIC in presence of 1/8 times of MIC of norfloxacin by Checkerboard assay (reference value: 0.128); assay type: functional
[17] = Hemolysis in human RBC assessed as hemolysis rate at 128 times of MIC concentration for 6 hrs; assay type: toxicity, cell-based, Erythrocyte; conditions: red blood cells, read-out: Activity
Escherichia coli [18] = test: Anti-bacterial activity against Escherichia coli ATCC 25922 assessed as growth inhibition by measuring optical density measured at 1/4 time of MIC in presence of 1/4 times of MIC of norfloxacin by Checkerboard assay (reference value: 0.128); assay type: functional
Acinetobacter baumannii [19] = test: Anti-bacterial activity against Acinetobacter baumannii assessed as growth inhibition by measuring optical density measured at 4 time of MIC in presence of 1 times of MIC of norfloxacin by Checkerboard assay (reference value: 0.152); assay type: functional
Escherichia coli [20] = test: Anti-bacterial activity against Escherichia coli ATCC 25922 assessed as growth inhibition by measuring optical density measured at 4 time of MIC in presence of 1/8 times of MIC of norfloxacin by Checkerboard assay (reference value: 0.125); assay type: functional
Cell membrane [21] = test: Induction of membrane damage in Acinetobacter baumannii assessed as increase in fluorescence intensity at 1 to 4 times of MIC concentration measured after 90 mins by DiSC3 fluorescent probe assay; assay type: cell membranes
Escherichia coli [22] = test: Antibiofilm activity against Escherichia coli ATCC 25922 assessed as inhibition rate of bio-film formation at 8 times of MIC concentration in presence of sodium dodecyl sulfate by Crystal violet assay relative to control; assay type: functional, organism-based
Candida albicans = test: Anti-fungal activity against Candida albicans 90023 assessed as inhibition of fungal growth; assay type: functional
Acinetobacter baumannii [23] = test: Anti-bacterial activity against Acinetobacter baumannii assessed as growth inhibition by measuring optical density measured at 2 time of MIC in presence of 1/4 times of MIC of norfloxacin by Checkerboard assay (reference value: 0.155); assay type: functional
Acinetobacter baumannii [24] = test: Anti-bacterial activity against Acinetobacter baumannii assessed as growth inhibition by measuring optical density measured at 1/4 time of MIC in presence of 1/4 times of MIC of norfloxacin by Checkerboard assay (reference value: 0.152); assay type: functional
Acinetobacter baumannii [25] = test: Anti-bacterial activity against Acinetobacter baumannii assessed as growth inhibition by measuring optical density measured at 1 time of MIC in presence of 1/8 times of MIC of norfloxacin by Checkerboard assay (reference value: 0.157); assay type: functional
Acinetobacter baumannii [26] = test: Antibiofilm activity against Acinetobacter baumannii assessed as inhibition rate of bio-film formation at 8 times of MIC concentration by Crystal violet assay relative to control; assay type: functional
Cell membrane [27] = test: Induction of membrane damage in Escherichia coli ATCC 25922 assessed as increase in fluorescence intensity at 1 to 4 times of MIC concentration measured after 90 mins by DiSC3 fluorescent probe assay; assay type: cell membranes
Escherichia coli [28] = test: Induction of membrane disturbance in Escherichia coli ATCC 25922 assessed as increase in fluorescence intensity at 0.5 to 8 times of MIC concentration measured after 90 mins by Propidium iodide assay; assay type: functional, organism-based

## CCCCc1nc(Cl)c(C2NC(=O)NC(CN3CCN(C(=O)/C(=N/OC)c4csc(N)n4)CC3)=C2C(=O)OCC)[nH]1 (stereo unspecified)
Escherichia coli [1]
  MIC: 13 µM (≈ 7.91 µg/mL)
Escherichia coli [2]
  OD: 0.118
Escherichia coli [3]
  OD: 0.121
Escherichia coli [4]
  OD: 0.051
Escherichia coli [5]
  OD: 0.102
Acinetobacter baumannii [6]
  Activity: Active
Pseudomonas aeruginosa
  MIC: 26 µM (≈ 15.8 µg/mL)
Escherichia coli [7]
  OD: 0.068
Acinetobacter baumannii [8]
  OD: 0.112
Escherichia coli [9]
  Activity: 64.4%
Escherichia coli [10]
  OD: 0.12
Acinetobacter baumannii [11]
  OD: 0.119
Acinetobacter baumannii [12]
  OD: 0.051
Staphylococcus aureus
  MIC: 13 µM (≈ 7.91 µg/mL)
Cell membrane [13]
  Activity: Active
Acinetobacter baumannii [14]
  OD: 0.163
Escherichia coli [15]
  Activity: 37.7%
Escherichia coli [16]
  OD: 0.122
[17]
  hemolysis at 6 h, 128 x MIC: 0.8%
Escherichia coli [18]
  OD: 0.127
Acinetobacter baumannii [19]
  OD: 0.051
Escherichia coli [20]
  OD: 0.108
Cell membrane [21]
  Activity: inactive
Escherichia coli [22]
  Activity: Active
Candida albicans
  MIC: 53 µM (≈ 32.2 µg/mL)
Acinetobacter baumannii [23]
  OD: 0.107
Acinetobacter baumannii [24]
  OD: 0.129
Acinetobacter baumannii [25]
  OD: 0.116
Acinetobacter baumannii [26]
  inhibition (INH): >70.2%
Cell membrane [27]
  Activity: inactive
Escherichia coli [28]
  Activity: Active
